Converted amounts (≈) assume the structure as drawn. Where a name gives a salt, the structure may show the parent alone. Read-outs that look alike come from different tables or passages of the source.
Legend:
[1] = tested on: Staphylococcus aureus (S. aureus FDA 209P); assay: Agar plate dilution MIC, Staphylococcus aureus FDA 209P; format: cell-based; settings: FDA209P, read-out: MIC S. aureus FDA 209P
Experimental: (§1) Antibacterial test was performed in substantial accordance with agar plate dilution method based on Standard method of The Japan Society of Chemotherapy to determine minimum inhibitory concentration (MIC) of the respective test compounds against Staphylococcus aureus (S. aureus FDA 209P) and vancomycin-resistant enterococci (E. faecalis NCTC-12201). Also determined was MIC80 on clinically separated strains (27 strains) of MRSA. The inoculated amount was 10^6 CFU/ml and flomoxef (FMOX) and vancomycin (VCM) were used as controls.

[2] = tested on: vancomycin-resistant enterococci (E. faecalis NCTC-12201); assay: Agar plate dilution MIC, vancomycin-resistant enterococci E. faecalis NCTC-12201; format: cell-based; settings: Enterococcus faecalis
Experimental: as §1

[3] = agar plate dilution, inoculum 10^6 CFU/ml
[4] = NCTC12201, agar plate dilution, inoculum 10^6 CFU/ml, vancomycin-resistant, read-out: MIC E. faecalis NCTC-12201

| MIC [1, 3] [µg/mL] | MIC [2, 4] [µg/mL] | Compound | MIC [1] [µg/mL] | MIC ([2]; NCTC12201, read-out: MIC E. faecalis NCTC-12201) [µg/mL] |
| --- | --- | --- | --- | --- |
| 0.2 (≈ 0.369 µM) | 3.13 (≈ 5.77 µM) | O=C(Cc1cccs1)N[C@@H]1C(=O)N2C(C(=O)O)=C(C=CSc3cc(=O)c4ccccc4s3)CS[C@H]12 [compound 1, 7-[2-(2-thienyl)acetamide]-3-[2-(4-oxo-4H-1-benzothiopyran-2-yl)thiovinyl]3-cephem-4-carboxylic acid] | – | – |
| 0.05 (≈ 0.0892 µM) | 0.78 (≈ 1.39 µM) | O=C(Cc1cccs1)N[C@@H]1C(=O)N2C(C(=O)O)=C(C=CSc3cc(=O)c4ccc(F)cc4s3)CS[C@H]12 [compound 2, 7-[2-(2-thienyl)acetamide]-3-[2-(7-fluoro-4-oxo-4H-1-benzothiopyran-2-yl)thiovinyl]-3-cephem-4-carboxylic acid] | – | – |
| 0.1 (≈ 0.175 µM) | 1.56 (≈ 2.72 µM) | COc1ccc2c(=O)cc(SC=CC3=C(C(=O)O)N4C(=O)[C@@H](NC(=O)Cc5cccs5)[C@H]4SC3)sc2c1 [compound 4, 7-[2-(2-thienyl)acetamide]-3-[2-(7-methoxy-4-oxo-4H-1-benzothiopyran-2-yl)thiovinyl]-3-cephem-4-carboxylic acid] | – | – |
| 0.05 (≈ 0.0819 µM) | 1.56 (≈ 2.55 µM) | O=C(Cc1cccs1)N[C@@H]1C(=O)N2C(C(=O)O)=C(C=CSc3cc(=O)c4c(C(F)(F)F)cccc4s3)CS[C@H]12 [compound 5, 7-[2-(2-thienyl)acetamide]-3-[2-(4-oxo-5-trifluoromethyl-4H-1-benzothiopyran-2-yl)thiovinyl]-3-cephem-4-carboxylic acid] | – | – |
| 0.025 (≈ 0.0419 µM) | 0.78 (≈ 1.31 µM) | O=C(Cc1cccs1)N[C@@H]1C(=O)N2C(C(=O)O)=C(C=CSc3cc(=O)c4cc(F)c(F)c(F)c4s3)CS[C@H]12 [compound 7, 7-[2-(2-thienyl)acetamide]-3-[2-(6,7,8-trifluoro-4-oxo-4H-1-benzothiopyran-2-yl)thiovinyl]-3-cephem-4-carboxylic acid] | – | – |
| 0.2 (≈ 0.358 µM) | 12.5 (≈ 22.4 µM) | O=C(Cc1cccs1)N[C@@H]1C(=O)N2C(C(=O)O)=C(C=CSc3cc(=O)c4ccc(O)cc4s3)CS[C@H]12 [compound 8, 7-[2-(2-thienyl)acetamide]-3-[2-(7-hydroxy-4-oxo-4H-1-benzothiopyran-2-yl)thiovinyl]-3-cephem-4-carboxylic acid] | – | – |
| 0.025 (≈ 0.0469 µM) | 3.13 (≈ 5.88 µM) | O=C(Cc1cccs1)N[C@@H]1C(=O)N2C(C(=O)O)=C(C=CSc3cc(=O)c4occc4s3)CS[C@H]12 [compound 9, 7-[2-(2-thienyl)acetamide]-3-[2-(7-oxo-7H-thiopyrano[3,2-b]furan-5-yl)thiovinyl]-3-cephem-4-carboxylic acid] | – | – |
| 0.025 (≈ 0.0456 µM) | 1.56 (≈ 2.84 µM) | O=C(Cc1cccs1)N[C@@H]1C(=O)N2C(C(=O)O)=C(C=CSc3cc(=O)c4sccc4s3)CS[C@H]12 [compound 20, 7-[2-(2-thienyl)acetamide]-3-[2-(7-oxo-7H-thieno[3,2-b]thiopyran-5-yl)thiovinyl]-3-cephem-4-carboxylic acid] | – | – |
| 0.025 (≈ 0.0429 µM) | 1.56 (≈ 2.68 µM) | O=C(Cc1cccs1)N[C@@H]1C(=O)N2C(C(=O)O)=C(C=CSc3cc(=O)c4cc(Cl)sc4s3)CS[C@H]12 [compound 21, 7-[2-(2-thienyl)acetamide]-3-[2-(2-chloro-4-oxo-4H-thieno[2,3-b]thiopyran-6-yl)thiovinyl]-3-cephem-4-carboxylic acid] | – | – |
| ≤ 0.006 | 3.13 (≈ 5.75 µM) | O=C(Cc1cccs1)N[C@@H]1C(=O)N2C(C(=O)O)=C(C=CSc3cc(=O)c4nccnc4s3)CS[C@H]12 [compound 24, 7-[2-(2-thienyl)acetamide]-3-[2-(8-oxo-8H-thiopyrano[2,3-b]pyrazin-6-yl)thiovinyl]-3-cephem-4-carboxylic acid] | – | – |
| 0.025 (≈ 0.0421 µM) | 1.56 (≈ 2.63 µM) | O=C(Cc1cccs1)N[C@@H]1C(=O)N2C(C(=O)O)=C(C=CSc3cc(=O)c4scc([N+](=O)[O-])c4s3)CS[C@H]12 [compound 26, 7-[2-(2-thienyl)acetamide]-3-[2-(3-nitro-7-oxo-7H-thieno[3,2-b]thiopyran-5-yl)thiovinyl]-3-cephem-4-carboxylic acid] | – | – |
| 0.0254 | 6.25 | N=C(N)SCc1ccc2c(=O)cc(SC=CC3=C(C(=O)O)N4C(=O)[C@@H](NC(=O)Cc5cccs5)[C@H]4SC3)sc2c1 [compound 28, 7-[2-(2-thienyl)acetamide]-3-[2-(7-isothiuroniummethyl-4-oxo-4H-1-benzothiopyran-2-yl)thiovinyl]-3-cephem-4-carboxylic acid.formate] | – | – |
| ≤ 0.006 | 6.25 (≈ 11.5 µM) | O=C(Cc1cccs1)N[C@@H]1C(=O)N2C(C(=O)O)=C(C=CSc3cc(=O)c4cccnc4s3)CS[C@H]12 [compound 30, 7-[2-(2-thienyl)acetamide]-3-[2-(4-oxo-4H-thiopyrano[2,3-b]pyridin-2-yl)thiovinyl]-3-cephem-4-carboxylic acid] | – | – |

The next lines start with the compound.

| Compound | MIC [1, 3] [µg/mL] | MIC [2, 4] [µg/mL] | MIC [1] [µg/mL] | MIC ([2]; NCTC12201, read-out: MIC E. faecalis NCTC-12201) [µg/mL] |
| --- | --- | --- | --- | --- |
| CO[C@@]1(NC(=O)CSC(F)F)C(=O)N2C(C(=O)O)=C(CSc3nnnn3CCO)CO[C@@H]21 [FMOX, flomoxef, reference compound] | 0.2 (≈ 0.403 µM) | > 100 | – | – |
| CN[C@H](CC(C)C)C(=O)N[C@H]1C(=O)N[C@@H](CC(N)=O)C(=O)N[C@H]2C(=O)N[C@H]3C(=O)N[C@H](C(=O)N[C@H](C(=O)O)c4cc(O)cc(O)c4-c4cc3ccc4O)[C@H](O)c3ccc(c(Cl)c3)Oc3cc2cc(c3O[C@@H]2O[C@H](CO)[C@@H](O)[C@H](O)[C@H]2O[C@H]2C[C@](C)(N)[C@H](O)[C@H](C)O2)Oc2ccc(cc2Cl)[C@H]1O [VCM, vancomycin, reference compound] | – | – | 0.78 (≈ 0.538 µM) | > 1000 |
| O=C(Cc1cccs1)N[C@@H]1C(=O)N2C(C(=O)O)=C(C=CSc3cc(=O)c4ccc(N5CCOCC5)cc4s3)CS[C@H]12 [compound 10, 7-[2-(2-thienyl)acetamide]-3-[2-(7-morpholino-4-oxo-4H-1-benzothiopyran-2-yl)thiovinyl]-3-cephem-4-carboxylic acid] | 0.05 (≈ 0.0796 µM) | 6.25 (≈ 9.96 µM) | – | – |
| Nc1nc(/C(=N/O)C(=O)N[C@@H]2C(=O)N3C(C(=O)O)=C(C=CSc4cc(=O)c5ccccc5s4)CS[C@H]23)cs1 [compound 11, sodium 7-[2-hydroxyimino-2-(2-aminothiazol-4-yl)acetamide]-3-[2-(4-oxo-4H-1-benzothiopyran-2-yl)thiovinyl]-3-cephem-4-carbonate] | 0.1 | 1.56 | – | – |
| Nc1nc(/C(=N/O)C(=O)N[C@@H]2C(=O)N3C(C(=O)O)=C(C=CSc4cc(=O)c5occc5s4)CS[C@H]23)cs1 [compound 17, 7-[2-hydroxyimino-2-(2-aminothiazol-4-yl)acetamide]-3-[2-(7-oxo-7H-thiopyrano[3,2-b]furan-5-yl)thiovinyl]-3-cephem-4-carboxylic acid] | 0.39 (≈ 0.675 µM) | 6.25 (≈ 10.8 µM) | – | – |
| Nc1nc(/C(=N/O)C(=O)N[C@@H]2C(=O)N3C(C(=O)O)=C(C=CSc4cc(=O)c5ccc(F)cc5s4)CS[C@H]23)cs1 [compound 18, 7-[2-hydroxyimino-2-(2-aminothiazol-4-yl)acetamide]-3-[2-(7-fluoro-4-oxo-4H-1-benzothiopyran-2-yl)thiovinyl]-3-cephem-4-carboxylic acid] | 0.39 (≈ 0.644 µM) | 6.25 (≈ 10.3 µM) | – | – |
| O=C(Cc1cccs1)N[C@@H]1C(=O)N2C(C(=O)O)=C(C=CSc3cc(=O)c4ccc(N5CCCCC5)cc4s3)CS[C@H]12 [compound 19, 7-[2-(2-thienyl)acetamide]-3-[2-(4-oxo-7-piperidino-4H-1-benzothiopyran-2-yl)thiovinyl]-3-cephem-4-carboxylic acid] | 0.1 (≈ 0.16 µM) | 3.13 (≈ 5 µM) | – | – |
| O=C(Cc1cccs1)N[C@@H]1C(=O)N2C(C(=O)O)=C(C=CSc3cc(=O)c4ccc(N5CCNCC5)cc4s3)CS[C@H]12 [compound 22, 7-[2-(2-thienyl)acetamide]-3-[2-(4-oxo-7-(piperazin-1-yl)-4H-1-benzothiopyran-2-yl)thiovinyl]-3-cephem-4-carboxylic acid.hydrochloride] | ≤ 0.006 | 6.25 | – | – |
| Nc1nc(/C(=N/O)C(=O)N[C@@H]2C(=O)N3C(C(=O)O)=C(C=CSc4cc(=O)c5sccc5s4)CS[C@H]23)cs1 [compound 23, 7-[2-hydroxyimino-2-(2-aminothiazol-4-yl)acetamide]-3-[2-(7-oxo-7H-thieno[3,2-b]thiopyran-5-yl)thiovinyl]-3-cephem-4-carboxylic acid] | 0.1 (≈ 0.168 µM) | 3.13 (≈ 5.27 µM) | – | – |
| O=C(Cc1cccs1)N[C@@H]1C(=O)N2C(C(=O)O)=C(C=CSc3sc4ccsc4c(=O)c3Br)CS[C@H]12 [compound 25, 7-[2-(2-thienyl)acetamide]-3-[2-(6-bromo-7-oxo-7H-thieno[3,2-b]thiopyran-5-yl)thiovinyl]-3-cephem-4-carboxylic acid] | 0.013 (≈ 0.0207 µM) | 0.78 (≈ 1.24 µM) | – | – |
| O=C(Cc1ccccc1)N[C@@H]1C(=O)N2C(C(=O)O)=C(C=CSc3cc(=O)c4ccccc4s3)CS[C@H]12 [compound 27, 7-(2-phenylacetamide)-3-[2-(4-oxo-4H-1-benzothiopyran-2-yl)thiovinyl]-3-cephem-4-carboxylic acid] | 0.025 (≈ 0.0466 µM) | 3.13 (≈ 5.83 µM) | – | – |
| NCc1c(SC=CC2=C(C(=O)O)N3C(=O)[C@@H](NC(=O)Cc4cccs4)[C@H]3SC2)sc2sc(Cl)cc2c1=O [compound 31, 7-[2-(2-thienyl)acetamide]-3-[2-(5-aminomethyl-2-chloro-4-oxo-4H-thieno[2,3-b]thiopyran-6-yl)thiovinyl]-3-cephem-4-carboxylic acid.trifluoroacetate] | 0.1 | 3.13 | – | – |

Source: patent US6294527A, “Cephem compounds” (Zenyaku Kogyo Kabushiki Kaisha, priority 1996, dated 2001)
